US8466188B2, “Use of spiro-oxindole compounds as therapeutic agents” (Xenon Pharmaceuticals Inc., priority 2006, dated 2013)

Tested on: sodium channel
Assay: Guanidine influx assay (14C-guanidine radiotracer flux) in a known cell line that expresses a sodium channel
Format: cell-based, human or rat
Source text: This example describes an in vitro assay for testing and profiling test agents against human or rat sodium channels stably expressed in cells of either an endogenous or recombinant origin.
The guanidine influx assay is a radiotracer flux assay used to determine ion flux activity of sodium channels in a high-throughput microplate-based format. The assay uses ^14C-guanidine hydrochloride in combination with various known sodium channel modulators, to assay the potency of test agents. Potency is determined by an IC50 calculation. Selectivity is determined by comparing potency of the compound for the channel of interest to its potency against other sodium channels (also called ‘selectivity profiling’).
Each of the test agents is assayed against cells that express the sodium channel of interest. Voltage gated sodium channels are either TTX sensitive or insensitive. This property is useful when evaluating the activities of a channel of interest when it resides in a mixed population with other sodium channels. The following Table 1 lists certain cell lines which are useful in screening for a certain sodium channel activity in the presence or absence of TTX.
It is also possible to employ recombinant cells expressing these sodium channels.
Cells expressing the channel of interest are grown according to the supplier or in the case of a recombinant cell in the presence of selective growth media such as G418 (Gibco/Invitrogen). The cells are disassociated from the culture dishes with an enzymatic solution (1×) Trypsin/EDTA (Gibco/Invitrogen) and analyzed for density and viability using haemocytometer (Neubauer). Disassociated cells are washed and resuspended in their culture media then plated into Scintiplates (Beckman Coulter Inc.) (approximately 100,000 cells/well) and incubated at 37° C./5% CO2 for 20-24 hours. After an extensive wash with Low sodium HEPES-buffered saline solution (LNHBSS) (150 mM Choline Chloride, […] (Sigma), 1 mM Calcium Chloride, 5 mM Potassium Chloride, 1 mM Magnesium Chloride, 10 mM Glucose) agents diluted with LNHBSS are added to each well. (Varying concentrations of test agent may be used). The activation/radiolabel mixture contains aconitine (Sigma), and ^14C-guanidine hydrochloride (ARC).
After loading the cells with test agent and activation/radiolabel mixture, the Scintiplates are incubated at ambient temperature. Following the incubation, the Scintplates are extensively washed with LNHBSS supplemented with guanidine (Sigma). The Scintiplates are dried and then counted using a Wallac MicroBeta TriLux (Perkin-Elmer Life Sciences). The ability of the test agent to block sodium channel activity is determined by comparing the amount of ^14C-guanidine present inside the cells expressing the different sodium channels.
IC50 value of a test agent for a specific sodium channel may be determined using the above general method. […] The IC50 curve is calculated using the 4 Parameter Logistic Model or Sigmoidal Dose-Response Model formula (fit=(A+((B−A)/(1+((C/x)^D)))).
The fold selectivity, factor of selectivity or multiple of selectivity, is calculated by dividing the IC50 value of the test sodium channel by the reference sodium channel, for example, Nav1.5.
The Example numbers provided in Table 2 correspond to the Example numbers herein: […]

Compound | IC50 [nM]
O=C(O)CN1C(=O)C2(COc3cc4c(cc32)OCO4)c2ccccc21 (centres unmarked) [Example 2, (2′-oxospiro[furo[2,3-f][1,3]benzodioxole-7,3′-indol]-1′(2′H)-yl)acetic acid] | > 1000
O=C(CN1C(=O)C2(COc3cc4c(cc32)OCO4)c2ccccc21)NCc1ccc(Cl)cc1 (centres unmarked) [Example 3, N-(4-chlorobenzyl)-2-(2′-oxospiro[furo[2,3-f][1,3]benzodioxole-7,3′-indol]-1′(2′H)-yl)acetamide] | 100 to 1000
CCCCCN1C(=O)C2(COc3cc4c(cc32)OCO4)c2c(-c3ccc(N(C)C)nc3)cccc21 (centres unmarked) [Example 4, 4′-[6-(dimethylamino)pyridin-3-yl]-1′-pentylspiro[furo[2,3-f][1,3]benzodioxole-7,3′-indol]-2′(1′H)one] | 100 to 1000
CCCCCN1C(=O)C2(COc3cc4c(cc32)OCO4)c2c(Nc3ccc(OC)nc3)cccc21 (centres unmarked) [Example 5, 4′-[(6-methoxypyridin-3-yl)amino]-1′-pentylspiro[furo[2,3-f][1,3]benzodioxole-7,3′-indol]-2′(1′H)-one] | 100 to 1000
O=C(O)c1ccccc1CN1C(=O)C2(COc3cc4c(cc32)OCO4)c2ccccc21 (centres unmarked) [Example 6, 2-[(2′-oxospiro[furo[2,3-f][1,3]benzodioxole-7,3′-indol]-1′(2′H)-yl)methyl]benzoic acid] | > 1000
O=C(NCCc1ccc(Cl)cc1)c1ccccc1CN1C(=O)C2(COc3cc4c(cc32)OCO4)c2ccccc21 (centres unmarked) [Example 7, N-[2-(4-chlorophenyl)ethyl]-2-[(2′-oxospiro[furo[2,3-f][1,3]benzodioxole-7,3′-indol]-1′(2′H)-yl)methyl]benzamide] | 100 to 1000
O=C(O)c1cccc(CN2C(=O)C3(COc4cc5c(cc43)OCO5)c3ccccc32)c1 (centres unmarked) [Example 8, 3-[(2′-oxospiro[furo[2,3-f][1,3]benzodioxole-7,3′-indol]-1′(2′H)-yl)methyl]benzoic acid] | 100 to 1000
O=C(NCCc1cccc(Cl)c1)c1cccc(CN2C(=O)C3(COc4cc5c(cc43)OCO5)c3ccccc32)c1 (centres unmarked) [Example 9, N-[2-(3-chlorophenyl)ethyl]-3-[(2′-oxospiro[furo[2,3-f][1,3]benzodioxole-7,3′-indol]-1′(2′H)-yl)methyl]benzamide] | 100 to 1000
O=C1N(Cc2ccc(F)cc2)c2ccccc2C12COc1cc3c(cc12)OCO3 (centres unmarked) [Example 10, 1′-(4-fluorobenzyl)spiro[furo[2,3-f][1,3]benzodioxole-7,3′-indol]-2′(1′H)-one] | 10 to 100
O=C(O)c1ccc(CN2C(=O)C3(COc4cc5c(cc43)OCO5)c3ccccc32)cc1 (centres unmarked) [Example 11, 4-[(2′-oxospiro[furo[2,3-f][1,3]benzodioxole-7,3′-indol]-1′(2′H)-yl)methyl]benzoic acid] | > 1000

Tested on: not given
Assay: not given

Compound | melting point [°C]
O=C1N(Cc2ccc(C(F)(F)F)o2)c2ccccc2C12COc1cc3c(cc12)OCC3 (centres unmarked) [Example 10.71, 1′-{[5-(trifluoromethyl)-2-furyl]methyl}-6,7-dihydrospiro[benzo[1,2-b:4,5-b′]difuran-3,3′-indol]-2′(1′H)-one] | 174 to 177
O=C1N(Cc2ccc(C(F)(F)F)s2)c2ccccc2C12COc1cc3c(cc12)OCO3 (centres unmarked) [Example 10.73, 1′-{[5-(trifluoromethyl)-2-thienyl]methyl}spiro[furo[2,3-f][1,3]benzodioxole-7,3′-indol]-2′(1′H)-one] | 127 to 130
COc1cc(C(F)(F)F)sc1CN1C(=O)C2(COc3cc4c(cc32)OCO4)c2ccccc21 (centres unmarked) [Example 10.74, 1′-{[3-methoxy-5-(trifluoromethyl)-2-thienyl]methyl}spiro[furo[2,3-f][1,3]benzodioxole-7,3′-indol]-2′(1′H)-one] | 178 to 180
Cc1cccc2c1C1(COc3cc4c(cc31)OCO4)C(=O)N2Cc1ccc(C(F)(F)F)o1 (centres unmarked) [Example 10.75, 4′-methyl-1′-{[5-(trifluoromethyl)-2-furyl]methyl}spiro[furo[2,3-f][1,3]benzodioxole-7,3′-indol]-2′(1′H)-one] | 117 to 119
Cc1ccc2c(c1)C1(COc3cc4c(cc31)OCO4)C(=O)N2Cc1ccc(C(F)(F)F)o1 (centres unmarked) [Example 10.76, 5′-methyl-1′-{[5-(trifluoromethyl)-2-furyl]methyl}spiro[furo[2,3-f][1,3]benzodioxole-7,3′-indol]-2′(1′H)-one] | 96 to 98
N#Cc1ccc(CN2C(=O)C3(COc4cc5c(cc43)OCO5)c3ccccc32)o1 (centres unmarked) [Example 10.80, 5-[(2′-oxospiro[furo[2,3-f][1,3]benzodioxole-7,3′-indol]-1′(2′H)-yl)methyl]-2-furonitrile] | 167 to 169
CS(=O)(=O)c1ccc(CN2C(=O)C3(COc4cc5c(cc43)OCO5)c3ccccc32)o1 (centres unmarked) [Example 10.81, 1′-{[5-(methylsulfonyl)-2-furyl]methyl}spiro[furo[2,3-f][1,3]benzodioxole-7,3′-indol]-2′(1′H)-one] | 177 to 179
O=C1N(Cc2ccc(=O)[nH]c2)c2ccccc2C12COc1cc3c(cc12)OCO3 (centres unmarked) [Example 10.82, 1′-[(6-oxo-1,6-dihydropyridin-3-yl)methyl]spiro[furo[2,3-f][1,3]benzodioxole-7,3′-indol]-2′(1′H)-one] | 247 to 250
Cn1cc(CN2C(=O)C3(COc4cc5c(cc43)OCO5)c3ccccc32)ccc1=O (centres unmarked) [Example 10.83, 1′-[(1-methyl-6-oxo-1,6-dihydropyridin-3-yl)methyl]spiro[furo[2,3-f][1,3]benzodioxole-7,3′-indol]-2′(1′H)-one] | 115 to 118
O=C1N(Cc2nnc(Cl)s2)c2ccccc2C12COc1cc3c(cc12)OCO3 (centres unmarked) [Example 10.85, 1′-[(5-chloro-1,3,4-thiadiazol-2-yl)methyl]spiro[furo[2,3-f][1,3]benzodioxole-7,3′-indol]-2′(1′H)-one] | 194 to 197
O=C1N(CC2CCN(c3ccccn3)CC2)c2ccccc2C12COc1cc3c(cc12)OCO3 (centres unmarked) [Example 10.86, 1′-[(1-pyridin-2-ylpiperidin-4-yl)methyl]spiro[furo[2,3-f][1,3]benzodioxole-7,3′-indol]-2′(1′H)-one] | 95 to 97
O=C1N(Cc2ccc(C(F)(F)F)o2)c2ccccc2C12COc1cc(OC(F)(F)F)ccc12 (centres unmarked) [Example 10.90, 6-(trifluoromethoxy)-1′-{[5-(trifluoromethyl)-2-furyl]methyl}spiro[1-benzofuran-3,3′-indol]-2′(1′H)-one] | 78 to 80
COc1ccc(CN2C(=O)C3(COc4cc(OC(F)(F)F)ccc43)c3ccccc32)cc1 (centres unmarked) [Example 10.91, 1′-(4-methoxybenzyl)-6-(trifluoromethoxy)spiro[1-benzofuran-3,3′-indol]-2′(1′H)-one] | 82 to 84
O=C1N(CC2CCCCC2)c2ccccc2C12COc1cc3c(cc12)OCO3 (centres unmarked) [Example 10.92, 1′-(cyclohexylmethyl)spiro[furo[2,3-f][1,3]benzodioxole-7,3′-indol]-2′(1′H)-one] | 153 to 154
CS(=O)(=O)N1C(=O)C2(COc3cc4c(cc32)OCO4)c2ccccc21 (centres unmarked) [Example 10.93, 1′-(methylsulfonyl)spiro[furo[2,3-f][1,3]benzodioxole-7,3′-indol]-2′(1′H)-one] | 215 to 217
CC(C)(C)OC(=O)N1CCC(CCN2C(=O)C3(COc4cc5c(cc43)OCO5)c3ccccc32)CC1 (centres unmarked) [Example 10.96, tert-butyl 4-[2-(2′-oxospiro[furo[2,3-f][1,3]benzodioxole-7,3′-indol]-1′(2′H)-yl)ethyl]piperidine-1-carboxylate] | 173 to 175
CCCCCN1C(=O)C2(COc3cc4c(cc32)OCO4)c2c(C(=O)Nc3cccc(OC)c3)cccc21 (centres unmarked) [Example 29.1, N-(3-methoxyphenyl)-2′-oxo-1′-pentyl-1′,2′-dihydrospiro[furo[2,3-f][1,3]benzodioxole-7,3′-indole]-4′-carboxamide] | 173 to 175
O=C1N(Cc2nc3cc(F)ccc3[nH]2)c2ccccc2C12COc1cc3c(cc12)OCO3 (centres unmarked) [Example 53, 1′-[(5-fluoro-1H-benzimidazol-2-yl)methyl]spiro[furo[2,3-f][1,3]benzodioxole-7,3′-indol]-2′(1′H)-one] | 138 to 142
COc1ccc2c(c1)C1(CO2)C(=O)N(C)c2ccccc21 (centres unmarked) [Example 58, 5-methoxy-1′-methylspiro[1-benzofuran-3,3′-indol]-2′(1′H)one] | 159 to 161
